{"source": "ChEMBL document CHEMBL1649565", "about": "“Besifloxacin, a novel fluoroquinolone, has broad-spectrum in vitro activity against aerobic and anaerobic bacteria” (Antimicrob Agents Chemother, 2009)", "type_in_all_cases": "functional", "key": {"[1]": {"system": "Enterococcus faecium", "assay": "Antibacterial activity against vancomycin- resistant Enterococcus faecium assessed as percent susceptible isolates by CLSI M100-S18 method"}, "[2]": {"system": "Enterococcus faecalis", "assay": "Antibacterial activity against vancomycin- resistant Enterococcus faecalis by CLSI M100-S18 method"}, "[3]": {"system": "Enterococcus faecium", "assay": "Antibacterial activity against vancomycin- resistant Enterococcus faecium by CLSI M100-S18 method"}, "[4]": {"system": "Enterococcus faecalis", "assay": "Antibacterial activity against vancomycin- resistant Enterococcus faecalis assessed as percent susceptible isolates by CLSI M100-S18 method"}}, "data": [{"smiles": "CN[C@H](CC(C)C)C(=O)N[C@H]1C(=O)N[C@@H](CC(N)=O)C(=O)N[C@H]2C(=O)N[C@H]3C(=O)N[C@H](C(=O)N[C@H](C(=O)O)c4cc(O)cc(O)c4-c4cc3ccc4O)[C@H](O)c3ccc(c(Cl)c3)Oc3cc2cc(c3O[C@@H]2O[C@H](CO)[C@@H](O)[C@H](O)[C@H]2O[C@H]2C[C@](C)(N)[C@H](O)[C@H](C)O2)Oc2ccc(cc2Cl)[C@H]1O", "note": "[VANCOMYCIN]", "values": [{"measurement": "Activity", "setting": "[1]", "result": 87.3, "unit": "%"}, {"measurement": "MIC50", "setting": "[2]", "result": 1, "unit": "µg/mL"}, {"measurement": "MIC90", "setting": "[2]", "result": "> 32", "unit": "µg/mL"}, {"measurement": "MIC", "setting": "[3]", "result": "≤ 0.5", "unit": "µg/mL"}, {"measurement": "MIC50", "setting": "[3]", "result": "≤ 0.5", "unit": "µg/mL"}, {"measurement": "MIC90", "setting": "[3]", "result": "> 32", "unit": "µg/mL"}, {"measurement": "Activity", "setting": "[4]", "result": 80, "unit": "%"}]}]}
